Laboratory results from patent US7923578B2, “Method of manufacturing 3-(4-hydroxyphenyl)propanoic acid amide, its application in the manufacture of anti-aging compositions and anti-aging composition” (Instytut Chemii Bioorganicznej Pan, priority 2005, dated 2011).
Where “and” joins values, the source holds several entries; their conditions need not be identical. Equal values may be shown once.

What was measured:
[1] = tested on: human dermal fibroblasts (SNF25); assay: Cell attachment of human skin fibroblasts; assay type: cell-based
Protocol: (§1) Test solution preparation: Stock solutions of 8 mM for the 3-p-hydroxyphenyl-propanoic acid amide were prepared by dissolving about 30 mg/ml in Hank's buffer to a final volume of 30 ml. In brief, the stock solutions were filter sterilized, stored at 4° C., and were used for experiments at their appropriate dilutions in cell culture media as required. Cell culture: All experiments were performed on mid- and late passage cultures of normal human adult skin fibroblast line, designated Senetek SNF25 (40-75% life span completed). In order to check the effects of test compounds on senescent cells, late passage cells with about 75% lifespan completed were used. SNF25 cell line was established from a mammary skin biopsy obtained from a young, non-smoking and healthy […] at the time of breast reduction operation. Normal culture conditions of medium (DMEM) containing antibiotics, 10% fetal calf serum, and incubation at 37° C., 5% CO2 with 95% humidity were used. The effects of the test chemicals were determined in the following conditions: Growth characteristics: Short-term growth experiments were performed using 24-well tissue culture plates (growth area 1.9 cm^2) and flat bottom 96 well plates (growth area 0.328 cm^2). Freshly prepared cell suspensions from mass cultures of SNF25 cells maintained in the lab were used. About 10,000 cells/well were seeded into 6 sets of 24-well plates. […] The numbers of cells were counted after different days of treatment in 2 wells from each concentration of the test chemical, by following the normal method of cell trypsinization and counting using a Coulter Counter. […] Cell survival, toxicity and JC-1 staining: Cell survival after exposure to various doses was measured with the 3-(4,5 dimethylthiazol-2-yl)-2,5-diphenyltetrazolium bromide (MTT) assay. […] The absorbance was measured at 595 nm. […] The cultures were visually examined after 72 hours, and the number of viable cells and/or the total cell protein content determined, after 72 hours exposure, by the Neutral Red Uptake method. […]

[2] = tested on: middle aged dermal fibroblasts; assay: Mitochondrial activity / cell survival (MTT assay); assay type: cell-based, human
Protocol: Test solution preparation: Stock solutions of 8 mM for the 3-p-hydroxyphenyl-propanoic acid amide were prepared by dissolving about 30 mg/ml in Hank's buffer to a final volume of 30 ml. In brief, the stock solutions were filter sterilized, stored at 4° C., and were used for experiments at their appropriate dilutions in cell culture media as required. Cell culture: All experiments were performed on mid- and late passage cultures of normal human adult skin fibroblast line, designated Senetek SNF25 (40-75% life span completed). In order to check the effects of test compounds on senescent cells, late passage cells with about 75% lifespan completed were used. […] The effects of the test chemicals were determined in the following conditions: Growth characteristics: Short-term growth experiments were performed using 24-well tissue culture plates (growth area 1.9 cm^2) and flat bottom 96 well plates (growth area 0.328 cm^2). […] The numbers of cells were counted after different days of treatment in 2 wells from each concentration of the test chemical, by following the normal method of cell trypsinization and counting using a Coulter Counter. […] Cell survival, toxicity and JC-1 staining: Cell survival after exposure to various doses was measured with the 3-(4,5 dimethylthiazol-2-yl)-2,5-diphenyltetrazolium bromide (MTT) assay. […] The absorbance was measured at 595 nm. […]

[3] = tested on: fibroblasts; assay: Induction of cell proliferation (DNA synthesis, BrdU incorporation); assay type: cell-based, human; conditions: pre-treated fibroblasts
[4] = tested on: late passage cells; assay: Cell survival of late passage (senescent) cells, Coulter counting; assay type: cell-based, human
Protocol: Effects on late passage cells—Cytoskeletal organization: Late passage cells with more than 75% lifespan were treated with different doses of phloretamide in order to see if this treatment could revert any of the age related changes. […] Effect of 3-p-hydroxyphenyl-propionic acid amide on the morphology of late passage cells after 7 and 14 days—Morphology of senescent cells: Late passage human skin fibroblasts (about 75% life span completed) were treated with various doses of phloretamide to see whether this treatment could reverse age-related alterations in their morphology. […] Heterogeneous behavior was not observed in the cells. […] Cell survival: Equal numbers of senescent cells were seeded in separate flasks and were treated with different concentrations of phloretamide. Cell numbers were determined by using a Coulter counter after trypsinization and resuspension of cells after 7 and 14 days of treatment.

[5] = tested on: Late passage human skin fibroblasts; assay: Cytoskeletal organization and morphology of late passage cells; assay type: cell-based
Protocol: as §1

[6] = tested on: Fibroblast cells (SF25 p29); assay: Lysosomal activity (Neutral Red Uptake assay); assay type: cell-based, human
Protocol: Test solution preparation: Stock solutions of 8 mM for the 3-p-hydroxyphenyl-propanoic acid amide were prepared by dissolving about 30 mg/ml in Hank's buffer to a final volume of 30 ml. In brief, the stock solutions were filter sterilized, stored at 4° C., and were used for experiments at their appropriate dilutions in cell culture media as required. Cell culture: All experiments were performed on mid- and late passage cultures of normal human adult skin fibroblast line, designated Senetek SNF25 (40-75% life span completed). In order to check the effects of test compounds on senescent cells, late passage cells with about 75% lifespan completed were used. SNF25 cell line was established from a mammary skin biopsy obtained from a young, non-smoking and healthy […] at the time of breast reduction operation. Normal culture conditions of medium (DMEM) containing antibiotics, 10% fetal calf serum, and incubation at 37° C., 5% CO2 with 95% humidity were used. The effects of the test chemicals were determined in the following conditions: Growth characteristics: Short-term growth experiments were performed using 24-well tissue culture plates (growth area 1.9 cm^2) and flat bottom 96 well plates (growth area 0.328 cm^2). Freshly prepared cell suspensions from mass cultures of SNF25 cells maintained in the lab were used. About 10,000 cells/well were seeded into 6 sets of 24-well plates. The cells were either allowed to attach and stabilize for 24 hours in normal culture medium or were directly added to the culture medium of a final concentration (range 40 μM to 500 μM). Culture medium was changed with the addition of test chemicals weekly. The numbers of cells were counted after different days of treatment in 2 wells from each concentration of the test chemical, by following the normal method of cell trypsinization and counting using a Coulter Counter. The third well in each category was fixed with cold methanol and stained with Giemsa stain for permanent record and for photography. The experiment was carried on until the cultures became fully confluent and no further growth was possible. Cell survival, toxicity and JC-1 staining: Cell survival after exposure to various doses was measured with the 3-(4,5 dimethylthiazol-2-yl)-2,5-diphenyltetrazolium bromide (MTT) assay. About 5,000 cells were seeded per well in a 96-well plate for 24 hours before the experiment. Cells were then treated with various doses of the compound to be tested. The wells were washed in Hank's and new medium was added. […] The absorbance was measured at 595 nm. […] The cultures were visually examined after 72 hours, and the number of viable cells and/or the total cell protein content determined, after 72 hours exposure, by the Neutral Red Uptake method. […]

[7] = tested on: SNF25 p 44 cells; assay: JC-1 staining of mitochondrial potential by fluorescence microscopy; assay type: cell-based, human; conditions: pre-treatment for 3 days, all doses
Protocol: FIG. 3 presents the localization of JC-1 in SNF25 p44 cells using phloretamide by fluorescence microscopy.
Localization of JC-1 in SNF25 p 44 cells using phloretamide by fluorescence microscopy is shown on FIG. 3.
Staining for JC-1 was performed after phloretamide pre-treatment on dermal fibroblasts for a period of 3 days to see the mitochondrial potential.

[8] = tested on: human skin fibroblasts (SNF25 p 23); assay: Short-term growth (one step growth curve, Coulter counting, Giemsa morphology); assay type: cell-based
Protocol: Test solution preparation: Stock solutions of 8 mM for the 3-p-hydroxyphenyl-propanoic acid amide were prepared by dissolving about 30 mg/ml in Hank's buffer to a final volume of 30 ml. In brief, the stock solutions were filter sterilized, stored at 4° C., and were used for experiments at their appropriate dilutions in cell culture media as required. Cell culture: All experiments were performed on mid- and late passage cultures of normal human adult skin fibroblast line, designated Senetek SNF25 (40-75% life span completed). In order to check the effects of test compounds on senescent cells, late passage cells with about 75% lifespan completed were used. SNF25 cell line was established from a mammary skin biopsy obtained from a young, non-smoking and healthy […] at the time of breast reduction operation. Normal culture conditions of medium (DMEM) containing antibiotics, 10% fetal calf serum, and incubation at 37° C., 5% CO2 with 95% humidity were used. The effects of the test chemicals were determined in the following conditions: Growth characteristics: Short-term growth experiments were performed using 24-well tissue culture plates (growth area 1.9 cm^2) and flat bottom 96 well plates (growth area 0.328 cm^2). Freshly prepared cell suspensions from mass cultures of SNF25 cells maintained in the lab were used. About 10,000 cells/well were seeded into 6 sets of 24-well plates. The cells were either allowed to attach and stabilize for 24 hours in normal culture medium or were directly added to the culture medium of a final concentration (range 40 μM to 500 μM). Culture medium was changed with the addition of test chemicals weekly. The numbers of cells were counted after different days of treatment in 2 wells from each concentration of the test chemical, by following the normal method of cell trypsinization and counting using a Coulter Counter. The third well in each category was fixed with cold methanol and stained with Giemsa stain for permanent record and for photography. The experiment was carried on until the cultures became fully confluent and no further growth was possible. Cell survival, toxicity and JC-1 staining: Cell survival after exposure to various doses was measured with the 3-(4,5 dimethylthiazol-2-yl)-2,5-diphenyltetrazolium bromide (MTT) assay. About 5,000 cells were seeded per well in a 96-well plate for 24 hours before the experiment. Cells were then treated with various doses of the compound to be tested. The wells were washed in Hank's and new medium was added. After three days, MTT (Sigma, M2128) was added at 0.5 mg/ml in medium. After 4 h, MTT was removed and isopropanol and HCl were added to dissolve the MTT crystals for 12-16 h. The absorbance was measured at 595 nm. Lysosomal activity: Neutral Red is preferentially taken up into the lysosomes of the cell. Fibroblast cells were maintained in culture and exposed to test compounds over a range of concentrations. The cultures were visually examined after 72 hours, and the number of viable cells and/or the total cell protein content determined, after 72 hours exposure, by the Neutral Red Uptake method. Individual wells of a 96-well tissue culture microtiter plate were inoculated with 0.2 ml of the appropriate media containing cells (usually 3×10^3 cells). After 1 day of incubation, the media were removed and replaced with unamended (control) medium or with medium amended with varied concentrations of the compound to be tested. […]

NC(=O)CCc1ccc(O)cc1 [phloretamide, 3-(4-hydroxyphenyl)propanoic acid amide]
percentage of cells attached to the surface of the culture flask ([1]; after six hours of treatment, 40 11 M to 2 mM): not affected to any significant extent | improved / enhanced cell attachment ([1]; at 40 μM and 80 μM): 20-30% and 10-20% | immediate toxicity to human dermal fibroblasts ([1]; six hours of treatment): not immediately toxic | effects on the activity of mitochondria ([2]; until a dose of 500 μM, 3 days, MTT): no negative effects | induction of cell growth ([2]; within the tested range of doses (0, 01 μM-500 μM)): no induction of cell growth | DNA synthesis in comparison to the controls [3]: no significant differences | numbers of surviving late passage cells ([4]; after one and two weeks): almost similar without much difference | cell growth of late passage cells ([4]; at higher doses, after 7 and 14 of treatment): dose dependent reduction | improvement in the late passage cells ([5]; after 14 days of treatment): couldn't find an improvement | appearance (morphology) of late passage cells ([5]; after seven and fourteen days of treatment, about 75% life span completed): subtle differences | actin staining pattern, treated versus untreated cells ([5]; middle-aged cells after 3 days): no obvious differences | staining pattern of the cells (lysosomal staining) ([6]; 40 μM and 80 μM, FIG. 4): showed autophagy | decrease in the lysosomal autophagy ([6]; dose range of 40 μM and 80 μM): 15-40% | lysosomal rate compared to the untreated ([6]; up to 200 μM, 72 hours exposure): decreased in a dose dependent manner | lysosomal activity ([6]; upwards of 40 μM): decrease in lysosomal activity was observed | JC-1 staining (mitochondrial potential) [7]: polarized mitochondria | JC-1 staining (mitochondrial potential) ([7]; listed as 3-p-hydroxyphenyl-propionic acid amide): Punctate orange-red fluorescent staining was observed | inhibition at 500 µM ([8]; Homo sapiens, Skin fibroblast, 264 h, higher concentrations (500 μM), 11 days, read-out: inhibition of cellular growth): > 50% | increase in cell numbers ([8]; after 11 days of treatment, 40 μM to 200 μM): 10-20% | doses at which cytotoxicity of cells was seen ([8]; after 11 days of treatment, morphology): greater than 200 μM | stimulation of cell growth ([8]; at 40 μM and 80 μM, one step growth curve, up to 11 days): stimulation of cell growth | appearance (morphology) of cells ([8]; at higher doses, after 11 days of treatment (FIG. 2 E)): larger, irregularly arranged and sparse
